{"source": "patent US20100086518A1", "about": "“TREATMENT OF MELANOMA” (NOVARTIS AG, priority 2007, published 2010)", "key": {"[1]": {"tested_on": "BRaf WT CHL-1 melanoma tumors"}, "[2]": {"tested_on": "other kinases in the PI3K/Akt and MAPK(K) pathways", "details": "read-out: IC50 other kinases in the PI3K/Akt and MAPK(K) pathways; negligible activity"}, "[3]": {"tested_on": "melanoma-inhibitory activity (MIA) protein", "test": "Plasma MIA levels in the CHL-1 study", "assay_type": "in vivo, Nu/Nu mice", "details": "30 mg/kg and 80 mg/kg groups", "method": "MIA ELISA Assay: Equal numbers of human melanoma and colorectal carcinoma cells (˜250,000 cells for each cell line) were seeded onto tissue culture plates and the culture medium for each cell line was collected 48 hr later. Levels of MIA in culture media or plasma were measured by a commercial single-step ELISA kit according to the manufacturer's protocol (Roche Diagnostics Corporation, Indianapolis, Ind.). MIA concentrations in test samples were calculated using a standard curve ranging from 3-37 ng/mL. When the MIA concentration exceeded the highest standard concentration, the samples were diluted 1:5 and assayed again to have the results fall within the linear range of the standard curve. Data were evaluated using the Student t-test (two-tailed distribution, two-sample unequal variance), using P≦0.05 as the level of significance.\nIn the CHL-1 study, plasma levels of the melanoma marker melanoma-inhibitory activity (MIA) protein secreted by melanoma cells were also measured."}, "[4]": {"tested_on": "melanoma tumor cells MEXF 462/6", "test": "cells", "details": "Homo sapiens"}, "[5]": {"tested_on": "melanoma tumor cells MEXF 276/7", "test": "cells", "details": "Homo sapiens"}, "[6]": {"tested_on": "melanoma tumor cells MEXF 1341/3", "test": "cells", "details": "Homo sapiens"}, "[7]": {"tested_on": "melanoma tumor cells MEXF 672/3", "test": "cells", "details": "Homo sapiens"}, "[8]": {"tested_on": "bFGF-driven neovascularization", "test": "In vivo FGF-mediated matrigel angiogenesis assay", "details": "daily for 8 days"}, "[9]": {"tested_on": "melanoma tumor cells MEXF 514/12", "test": "cells", "details": "Homo sapiens"}, "[10]": {"tested_on": "melanoma tumor cells MEXF 1765/3", "test": "cells", "details": "Homo sapiens"}, "[11]": {"tested_on": "melanoma tumor cells MEXF 989/7", "test": "cells", "details": "Homo sapiens"}, "[12]": {"tested_on": "human melanoma CHL-1 (wild type B-Raf) xenograft", "assay_type": "in vivo", "details": "day 25", "method": "Animals. […] . Mice were implanted with subcutaneous ID chips upon arrival and then underwent at least 7 days of acclimatization prior to the study start. All animal studies were conducted in a facility accredited by the Association for Assessment and Accreditation of Laboratory Animal Care International and in accordance with all guidelines of the Institutional Animal Care and Use Committee and the Guide for The Care and Use of Laboratory Animals (National Research Council).\nCell culture for in vivo efficacy studies. […] The human melanoma cell line CHL-1 was cultured for 6 passages in DMEM media with low glutamine+10% FBS at 37° C. in a humidified atmosphere with 5% CO2.\nThe day of tumor cell implantation, tumor cells were harvested and resuspended in HBSS (A375 cells) or 50% HBSS+plus 50% Matrigel (CHL-1 cells; Becton Dickenson and Company, Franklin Lakes, N.J.) at 2.5×10^7 cells/mL. Cells were inoculated subcutaneously in the right flank at 5×10^6 cells/200 uL/mouse.\n. The group sizes were 9 animals per group (A375 study) or 10 animals per group (CHL-1 study). […] . […] . […] Comparisons of the mean tumor volume in the treatment vs. the vehicle group were evaluated using a Student's two tailed t-test (Excel software)."}, "VEGFR2/Flk1": {"target": "T1, VEGFR2/Flk1 (UniProt P35968)", "T1 construct": "other: purified enzyme", "test": "VEGFR2 kinase assay (purified enzyme)", "assay_type": "biochemical", "details": "read-out: IC50 VEGFR flk1"}, "[13]": {"details": "Cmpd 1 30 mg/kg qd, carboplatin 50 mg/kg + paclitaxel 25 mg/kg 1x/wk"}}, "note": "Like-named read-outs stand apart in the source and are kept apart here.", "data": [{"smiles": "CN1CCN(c2ccc3nc(-c4c(N)c5c(F)cccc5[nH]c4=O)[nH]c3c2)CC1", "note": "[Compound 1, 4-amino-5-fluoro-3-[6-(4-methylpiperazin-1-yl)-1H-benzimidazol-2-yl]-1H-quinolin-2-one]", "values": [{"measurement": "Clinical Observations", "setting": "[1]; BAR = bright, alert, responsive, BWL = body weight loss", "result": "BAR"}, {"measurement": "% Mean change in BW of initial", "setting": "[1]; [13]", "result": 4.3, "unit": "%"}, {"measurement": "Max % TGI; day 14", "setting": "[1]; [13]", "result": 52.51, "unit": "%"}, {"measurement": "Mean of Tv on day 14", "setting": "[1]; Cmpd 1 30 mg/kg qd, carboplatin 50 mg/kg + paclitaxel 25 mg/kg 1x/wk, tumor volume in mm^3", "result": 884}, {"measurement": "T/C Observed (O)", "setting": "[1]; day 14", "result": 0.56}, {"measurement": "IC50", "setting": "[2]", "result": "> 10000", "unit": "nM"}, {"measurement": "plasma MIA levels", "setting": "[3]; day 8, vehicle […]", "result": "undetectable"}, {"measurement": "plasma MIA levels", "setting": "[3]; day 22", "result": "undetectable"}, {"measurement": "IC50", "setting": "[4]; read-out: IC50 clonogenic, MEXF 462/6", "result": 700, "unit": "nM"}, {"measurement": "EC50", "setting": "[4]; read-out: relative EC50 soft agar clonogenic, 462/6", "result": 700, "unit": "nM"}, {"measurement": "IC50", "setting": "[5]; read-out: IC50 clonogenic, MEXF 276/7", "result": 1140, "unit": "nM"}, {"measurement": "EC50", "setting": "[5]; read-out: relative EC50 soft agar clonogenic, 276/7", "result": 1140, "unit": "nM"}, {"measurement": "IC50", "setting": "[6]; read-out: IC50 clonogenic, MEXF 1341/3", "result": 2240, "unit": "nM"}, {"measurement": "EC50", "setting": "[6]; read-out: relative EC50 soft agar clonogenic, 1341/3", "result": 2240, "unit": "nM"}, {"measurement": "IC50", "setting": "[7]; read-out: IC50 clonogenic, MEXF 672/3", "result": 1670, "unit": "nM"}, {"measurement": "EC50", "setting": "[7]; read-out: relative EC50 soft agar clonogenic, 672/3", "result": 1670, "unit": "nM"}, {"measurement": "hemoglobin level in Matrigel plugs versus unsupplemented Matrigel", "setting": "[8]; all doses >10 mg/kg", "result": "less than the basal hemoglobin level"}, {"measurement": "IC50 of inhibition of bFGF-driven neovascularization", "setting": "[8]; oral, 3-100 mg/kg, hemoglobin in Matrigel plugs", "result": 3, "unit": "mg/kg"}, {"measurement": "IC50", "setting": "[9]; MEXF514, read-out: IC50 clonogenic, MEXF 514/12", "result": 1050, "unit": "nM"}, {"measurement": "EC50", "setting": "[9]; MEXF514, read-out: relative EC50 soft agar clonogenic, 514/12", "result": 1050, "unit": "nM"}, {"measurement": "IC50", "setting": "[10]; read-out: IC50 clonogenic, MEXF 1765/3", "result": 2580, "unit": "nM"}, {"measurement": "EC50", "setting": "[10]; read-out: relative EC50 soft agar clonogenic, 1765/3", "result": 2580, "unit": "nM"}, {"measurement": "IC50", "setting": "[11]; MEXF 989, read-out: IC50 clonogenic, MEXF 989/7", "result": 2540, "unit": "nM"}, {"measurement": "EC50", "setting": "[11]; MEXF 989, read-out: relative EC50 soft agar clonogenic, 989/7", "result": 2540, "unit": "nM"}, {"measurement": "tumor growth inhibition (TGI)", "setting": "[12]; 10 mpk p.o. daily", "result": 64, "unit": "%"}, {"measurement": "tumor growth inhibition (TGI)", "setting": "[12]; 30 mpk p.o. daily", "result": 73, "unit": "%"}, {"measurement": "tumor growth inhibition (TGI)", "setting": "[12]; 60 mpk p.o. daily", "result": 89, "unit": "%"}, {"measurement": "tumor growth inhibition (TGI)", "setting": "[12]; 80 mpk p.o. daily", "result": 87, "unit": "%"}]}, {"smiles": "Nc1c(-c2nc3ccc(N4CCNCC4)cc3[nH]2)c(=O)[nH]c2cccc(F)c12", "note": "[Compound 3, 4-Amino-5-fluoro-3-(6-piperazin-1-yl-1H-benzimidazol-2-yl)quinolin-2(1H)-one]", "values": [{"measurement": "IC50", "setting": "VEGFR2/Flk1", "result": "[…]"}]}]}
